Legend:
patients with T2DM [1] = assay: Average 7-point SMPG change from baseline to Week 30 (Example 3); assay type: in vivo, human; settings: mITT population
Text: In yet another aspect of the present invention, the composition or combination as described herein can be used for improving average 7-point SMPG profile. Self-monitored plasma glucose (SMPG)”, as used herein, is in particular the “7-point Self Monitored Plasma Glucose”. “7-point Self Monitored Plasma Glucose” in particular refers to the measurement of plasma glucose seven times a day and calculation of the average plasma glucose concentration therefrom. The “7-point Self Monitored Plasma Glucose” value is in particular an average plasma glucose concentration including fasting and postprandial conditions. In particular, measurements of plasma glucose concentration are performed pre-breakfast, post-breakfast (e.g. 2-hour post-breakfast), pre-lunch, post-lunch (e.g. 2-hour post-lunch), pre-dinner, post-dinner (e.g. 2-hour post-dinner) and at bed-time. The treatment by the combination of the present invention, as described herein, can improve the self-monitored plasma glucose.
The 7-point SMPG profile should be measured at the following 7 points: pre-prandial and 2 hours postprandial for breakfast, lunch, dinner and at bedtime. Two hours postprandial (breakfast, lunch and dinner) is defined as 2 hours after the start of the meal.
The patients are requested to perform 7-point SMPG profile measurement over a single 24-hour period on 2 Different Days in the Week Before V6 (Week 0), V15 (Week 12), and V21 (week 30, end of treatment assessment visit). All SMPG values measured on these days will be recorded in diary and transferred into the e-CRF.
(§1) Similar MMRM method or analysis of covariance (ANCOVA) was applied on continuous secondary efficacy endpoints and the Cochran-Mantei-Haenszel method stratified by randomization strata was applied for categorical efficacy endpoints.

[2] = test system: patients with Type 2 diabetes mellitus (T2DM); assay: ALT increase reported on AE form (Example 2); settings: on-treatment period
patients with T2DM [3] = assay type: in vivo, human; settings: Example 3
Text: as §1

patients with T2DM [4] = assay: HbA1c change from baseline to Week 30 (Example 3, with or without metformin); assay type: in vivo, human
Method: For the eligibility and efficacy assessments of the study, HbA1c is measured by a certified level I “National Glycohemoglobin Standardization Program” (NGSP) central laboratory.
Methodology: This was an open-label, 1:1 randomized, active-controlled, 2-arm, 30-week treatment duration, parallel-group multinational and multicenter study. The randomization was stratified by value of HbA1cat Visit 5 (Week −1) (<8%, ≥8%) and metformin use at screening (Y, N).
Diagnosis and criteria for inclusion: Inclusion criteria: Patients with type 2 diabetes mellitus diagnosed for at least 1 year and inadequately controlled on their current antidiabetic treatment. Patients had to be treated with basal insulin for at least 6 months at a stable daily dose of 15 to 40 U, alone or combined with 1 or 2 oral anti-diabetic drugs ((metformin, an SU, a glinide, a DPP-4 inhibitor, or a SGLT-2 inhibitor) at a stable dose for at least 3 months. Key exclusion criteria for randomization (at the end of the run-in phase): HbA1c<7% or >10% at Visit 5 (week −1); mean fasting SMPG >140 mg/dL (7.8 mmol/L) for the 7 days before the randomization Visit (Visit 6); average insulin glargine daily dose <20 U or >50 U calculated for the last 3 days before Visit 6.
Efficacy analysis was based on modified intent-to-treat (mITT) population using efficacy assessment collected during the study, including those obtained after IMP discontinuation or introduction of rescue therapy. The mITT population consisted of all randomized patients who had both a baseline assessment and at least one post-baseline assessment of any primary or secondary efficacy variables.
The primary efficacy endpoint was analyzed using a mixed-effect model with repeated measures (MMRM). The MMRM model included the treatment groups, randomization strata, visit, treatment-by-visit interaction, and country as fixed-effect factors, and the baseline HbA1c-by-visit interaction as covariate.

patients with T2DM [5] = assay: Increased calcitonin reported on AE form (Example 3); assay type: in vivo, human
Text: During the course of the study, if calcitonin value is found […] (5.9 pmol/L): • A retest should be performed by the central laboratory within 7 days. In addition, blood should be collected and sent to the central laboratory for measurement of: calcium, phosphorus, gastrin, Thyroid Stimulating Hormone (TSH), and anti-thyroid peroxidase (anti-TPO) antibodies. • The clinical and laboratory documentations listed below are to be collected and recorded in source documents as soon as possible: • Potential false positive circumstances: smoking status, proton-pump inhibitor treatments (eg, omeprazole), autoimmune thyroid diseases (Hashimoto's thyroiditis or Grave's disease), differentiated thyroid cancer, hypercalcemia, hypergastrinemia, chronic renal insufficiency (not on dialysis), other neuro-endocrine tumors (lung small cell cancer, intestinal carcinoid), acute pulmonary inflammatory conditions, or sepsis; • Specific personal and/or familial medical history in relation to thyroid or other endocrine diseases; • Specific physical examination (neck, thyroid gland).
If the retest confirms that the calcitonin value is […]: • The event must be reported in the e-CRF on the specific AE form and specific complementary form for “increased calcitonin […]” with all appropriate clinical and laboratory documentation. • An ultrasound scan of the thyroid should be performed and the patient may be referred to a thyroid specialist if judged necessary. • The patient should continue to be followed according to protocol schedule (including planned calcitonin measurements). […] As far as possible, blood should be collected 1 to 2 weeks after IMP discontinuation and sent to the central laboratory for calcitonin measurement. • If at any time during follow-up a calcitonin value ≥20 pg/mL increases by 20% or more between 2 assessments (while remaining below 50 pg/mL), a repeated measurement should be performed earlier than scheduled in the protocol, ie, 1 month later. Once results are available, discussion with Sponsor should be initiated without delay for further guidance. 9.6.7 Monitoring of Renal Function in Case of Prolonged and Severe Nausea and Vomiting

[6] = PT, on-treatment period, Safety population
[7] = on-treatment period, Safety population

For “Gly(A21)-Arg(B31)-Arg(B32)-human insulin [Insulin Glargine]”, the “Average of 7-point SMPG, change from baseline to Week 30, LS Mean (SE)” value (patients with T2DM [1]; MMRM) was −0.60 (0.130) mmol/L, the “Average of 7-point SMPG at Week 30, Mean (SD)” value (patients with T2DM [1]) was 8.62 (1.74) mmol/L and the “Average of 7-point SMPG at Week 30, Median” value (patients with T2DM [1]) was 8.26 mmol/L. The “Patients with AE of ALT increase” value ([2]; Example 2) was 2 patients, the “Events reported on the AE form for ALT increase: Alanine aminotransferase increased” value ([2]; Safety population) was 2 (0.4%) n (%) and the “Patients with events reported on the AE form for ALT increase: Any” value ([2]; Safety population) was 2 (0.4%) n (%). The “Patients reaching HbA1c<7.0% with no body weight gain and no documented symptomatic hypoglycemia” value (patients with T2DM [3]) was 9.0%, the “Patients reaching HbA1c<7.0% at Week 30 with no documented symptomatic hypoglycemia” value (patients with T2DM [3]; 30-week treatment period) was 18.6% and the “Mean HbA1c level at Week 30” value (patients with T2DM [4]; Example 3) was 7.5%. The “HbA1c change from baseline to Week 30, LS Mean (SE)” value (patients with T2DM [4]; MMRM, mITT population) was −0.62 (0.055) %, the “HbA1c at Week 30, Mean (SD)” value (patients with T2DM [4]; mITT population) was 7.48 (0.91) % and the “HbA1c at Week 30, Median” value (patients with T2DM [4]; mITT population) was 7.40%. The “Patients with TEAE of increased calcitonin (≥20 pg/mL)” value (patients with T2DM [5]; Example 3) was “Two”, the “% of patients with events reported on the AE form for increased calcitonin (≥20 ng/L): Blood calcitonin increased” value (patients with T2DM [5]; [6]) was 0.5% and the “Number of patients with events reported on the AE form for increased calcitonin (≥20 ng/L): Blood calcitonin increased” value (patients with T2DM [5]; [6]) was 2. The “% of patients with events reported on the AE form for increased calcitonin (≥20 ng/L): Any” value (patients with T2DM [5]; [7]) was 0.5% and the “Number of patients with events reported on the AE form for increased calcitonin (≥20 ng/L): Any” value (patients with T2DM [5]; [7]) was 2.
